Results on 10 compounds are retold here after US20260285853A1, “COMPOUNDS AND METHODS FOR MODULATING SPLICING” (REMIX THERAPEUTICS INC., priority 2023, published 2026).

Common to all, as to type: cell-based
Assay [1] has as its system MYB mRNA. Nature of the assay: Splicing RT-qPCR assay (THP), Table 2A. The note with it: Table 2A (THP); for AC50: AJ mRNA increase, read-out: MYB AJ (increase in alternative junction mRNA, AC50); for IC50: CJ mRNA decrease, read-out: MYB CJ (decrease in canonical junction mRNA, IC50). For orientation: Quantitative PCR measures a nucleic acid by following its amplification.

The test system of assay [2] is HTT mRNA. Nature of the assay: Gene panel canonical junction qPCR assay, decrease in CJ mRNA, Table 3. Particulars: decrease in canonical junction (CJ) mRNA, gene panel qPCR, Table 3. How it is done:
(§1) Compounds described herein were used to modulate RNA transcript abundance in cells. The expression of a target mRNA was measured by detecting the formation of an exon-exon junction in the canonical transcript (CJ). A compound mediated exon-inclusion event was detected by observing an increase in formation of a new junction with an alternative exon (AJ). Real-time qPCR assays were used to detect these splicing switches and interrogate the potency of various compounds towards different target genes. A high-throughput real time quantitative PCR (RT-qPCR) assay was developed to measure these two isoforms of the mRNA (CJ and AJ) for exemplary genes, such as HTT, SMN2, and MYB, together with a control housekeeping gene, GAPDH or GUSB or PPIA, used for normalization. Briefly, the A673 or K562 cell line was treated with various compounds described herein (e.g., compounds of Formula (I)). After treatment, the levels of the HTT, MYB, or SMN2 mRNA targets were determined from each sample of cell lysate by cDNA synthesis followed by qPCR.
(§2) The A673 cell line was cultured in DMEM with 10% FBS. Cells were diluted with full growth media and plated in a 96-well plate (15,000 cells in 100 ul media per well). The plate was incubated at 37° C. with 5% CO2 for 24 hours to allow cells to adhere. An 11-point 3-fold serial dilution of the compounds was made in DMSO then diluted in media in an intermediate plate. Compounds were transferred from the intermediate plate to the cell plate with the top dose at a final concentration of 10 uM in the well. Final DMSO concentration was kept at or below 0.25%. The cell plate was returned to the incubator at 37° C. with 5% CO2 for an additional 24 hours.
(§3) The K562 cell line was cultured in IMDM with 10% FBS. For K562, cells were diluted with full growth media and plated in either a 96-well plate (50,000 cells in 50 uL media per well) or a 384-well plate (8,000-40,000 cells in 45 uL media per well). An 11-point 3-fold serial dilution of the compounds were made in DMSO then diluted in media in an intermediate plate. Compound was transferred from the intermediate plate to the cell plate with the top dose at a final concentration of 10 uM in the well. Final DMSO concentration was kept at or below 0.25%. Final volume was 100 uL for 96-well plate and 50 uL for 384-well plate. The cell plate was then placed in an incubator at 37° C. with 5% CO2 for 24 hours.
(§4) The data analysis was performed by first determining the ΔCt vs the housekeeper gene. This ΔCt was then normalized against the DMSO control (ΔΔCt) and converted to RQ (relative quantification) using the 2^(−ΔΔCt) equation. The RQ were then converted to a percentage response by arbitrarily setting an assay window of 3.5 and 4.0 ΔCt for HTT-CJ and MYB-CJ respectively and an assay window of 9 and 3 ΔCt for HTT-AJ and MYB-AJ in 96 well format (50,000 K562 cells/well and 15,000 A673 cells per well) and an assay window of 3 and 4 ΔCt for HTT-CJ and MYB-CJ respectively and an assay window of 5 and 3 ΔCt for HTT-AJ and MYB-AJ respectively in 384 well format (8,000 K562 cells/well example). […] The percentage response was then fitted to the 4 parametric logistic equation to evaluate the concentration dependence of compound treatment. The increase in AJ mRNA is reported as AC50 (compound concentration having 50% response in AJ increase) while the decrease in CJ mRNA levels is reported as IC50 (compound concentration having 50% response in CJ decrease).
(§5) Additional studies were carried out for a larger panel of genes using the protocol provided above. The junction between flanking upstream and downstream exons was used to design canonical junction qPCR assays. At least one of the forward primer, reverse primer or the CY5-labeled 5′ nuclease probe (with 3′ quencher such as ZEN/Iowa Black FQ) was designed to overlap with the exon junction to capture the CJ mRNA transcript. […]

Assay [3] has as its system MYB mRNA. Described as above. Particulars: decrease in canonical junction (CJ) mRNA, gene panel qPCR, Table 3. How it is done: as §1, §2, §3, §4, §5
Assay [4] concerns SH-SY5Y (human neuroblastoma) cells. Nature of the assay: Cell viability, Cell Titer Glo 2.0 assay. Particulars: read-out: Viability SHSY5Y.3 GI50. How it is done: Compounds described herein were screened for toxicity in K562 (human chronic myelogenous leukemia) and SH-SY5Y (human neuroblastoma) cells using a Cell Titer Glo 2.0 assay.
• Promega CellTiter-Glo® 2.0 Cell Viability Assay (cat #G9241) • Corning 384-well TC-treated microplates (cat #3570)
Cells were plated at 500 cells/well (K562 cells) in 45 μL of IMDM supplemented with 10% FBS in a 384-well opaque plate. Wells containing only medium were used as a blank control. Test compounds (e.g., compounds of Formula (I) or (II) were first serially diluted in DMSO then diluted 1:100 with IMDM+10% FBS. The final concentration of DMSO was 0.1% in each well. The cells were incubated for 72 hours at 37° C. and 5% CO2 before assaying with Cell Titer Glo 2.0 reagent.

In assay [5] the test system is HTT mRNA. Nature of the assay: Splicing RT-qPCR assay (THP), Table 2A. The note with it: Table 2A (THP); for AC50: AJ mRNA increase, read-out: HTT AJ (increase in alternative junction mRNA, AC50); for IC50: CJ mRNA decrease, read-out: HTT CJ (decrease in canonical junction mRNA, IC50).

Where only a bound is given, the exact number is not on record here.

Regarding `CCNC1CCN(c2ccc(C(=O)Nc3cc(C(=O)NC)c4nc(C)cn4c3)c3nn(C)cc23)CC1` [Compound 319, 4-(4-(ethylamino)-piperidin-1-yl)-2-methyl-N-(2-methyl-8-(methylcarbamoyl)-imidazo[1,2-a]-pyridin-6-yl)-2H-indazole-7-carboxamide 2,2,2-trifluoroacetate], the AC50 in assay [1] and in assay [5] was over 10 µM each time. For the same compound, the IC50 in assay [1], in assay [2], in assay [3] and in assay [5] was over 10 µM in each case. In addition, the GI50 in assay [4] is over 10 µM.

Turning to `COc1c(NC(=O)c2c(F)cc(N3CCC(NC4CC4)CC3)c3cn(C)nc23)cn2cc(C)nc2c1C#N` [Compound 320, N-(8-cyano-7-methoxy-2-methyl-imidazo[1,2-a]pyridin-6-yl)-4-[4-(cyclopropylamino)-1-piperidyl]-6-fluoro-2-methyl-indazole-7-carboxamide], the AC50 in assay [1] and in assay [5] was 0.1 to 1 µM each time. Moreover, the 50% inhibitory concentration (IC50) in assay [1], in assay [2], in assay [3] and in assay [5] was 0.1 to 1 µM each time. The GI50 in assay [4] was 0.1 to 1 µM.

For the compound `Cc1cn2cc(NC(=O)c3c(F)cc(N4CCC(NC5CC5)CC4)c4cn(C)nc34)c(OCC3CC3)c(F)c2n1` [Compound 321, 4-[4-(cyclopropylamino)-1-piperidyl]-N-[7-(cyclopropylmethoxy)-8-fluoro-2-methyl-imidazo[1,2-a]-pyridin-6-yl]-6-fluoro-2-methyl-indazole-7-carboxamide], the AC50 in assay [1] and in assay [5] was under 0.1 µM in each case. For the same compound, the half-maximal inhibitory concentration (IC50) in assay [1] is under 0.1 µM; in assay [2] it was 0.1 to 1 µM; in assay [3], under 0.1 µM; in assay [5] it was 0.1 to 1 µM. Besides, in assay [4], the GI50 was under 0.1 µM.

For `Cc1cn2cc(NC(=O)c3ccc(N4CCC(NC5CC5)CC4)c4cn(C)nc34)cc(Oc3ccnnc3)c2n1` [Compound 322, 4-[4-(cyclopropyl-amino)-1-piperidyl]-2-methyl-N-(2-methyl-8-pyridazin-4-yloxy-imidazo[1,2-a]-pyridin-6-yl)-indazole-7-carboxamide], the AC50 in assay [1] and in assay [5] was 1 to 10 µM throughout. Moreover, the IC50 in assay [1], in assay [2], in assay [3] and in assay [5] was 1 to 10 µM throughout. Besides, the GI50 in assay [4] lay within 1 to 10 µM.

Consider `CCNC1CCN(c2ccc(C(=O)Nc3cn4cc(C)nc4cc3OC)c3nn(C)cc23)CC1` [Compound 323, 4-[4-(ethylamino)-1-piperidyl]-N-(7-methoxy-2-methyl-imidazo[1,2-a]-pyridin-6-yl)-2-methyl-indazole-7-carboxamide 2,2,2-trifluoroacetate], for which the half-maximal activity concentration (AC50) lay within 0.1 to 1 µM in assay [1] and 1 to 10 µM in assay [5]. Also, the IC50 lay within 0.1 to 1 µM in assay [1], 1 to 10 µM in assay [2], 0.1 to 1 µM in assay [3] and 1 to 10 µM in assay [5]. In addition, in assay [4], the GI50 is 1 to 10 µM.

Take `CCNC1CCN(c2ccc(C(=O)Nc3cc(OCc4ccccc4)c4nc(C)cn4c3)c3nn(C)cc23)CC1` [Compound 324, N-(8-benzyloxy-2-methylimidazo[1,2-a]pyridin-6-yl)-4-[4-(ethylamino)-1-piperidyl]-2-methyl-indazole-7-carboxamide]: the AC50 is 0.1 to 1 µM in assay [1] and over 10 µM in assay [5]. For the same compound, the IC50 in assay [1] is 1 to 10 µM; in assay [2] it was over 10 µM; in assay [3], 1 to 10 µM; in assay [5], over 10 µM. Besides, the GI50 in assay [4] was in the range of 1 to 10 µM.

In the case of `CCNC1CCN(c2ccc(C(=O)Nc3cc(Oc4ccc(Cl)cc4)c4nc(C)cn4c3)c3nn(C)cc23)CC1` [Compound 325, N-[8-(4-chloro-phenoxy)-2-methylimidazo[1,2-a]-pyridin-6-yl]-4-[4-(ethylamino)-1-piperidyl]-2-methyl-indazole-7-carboxamide], the AC50 in assay [1] is under 0.1 µM; in assay [5], 1 to 10 µM. The IC50 in assay [1] is 0.1 to 1 µM; in assay [2], 1 to 10 µM; in assay [3] it was 0.1 to 1 µM; in assay [5], 1 to 10 µM. Further, the 50% growth inhibitory concentration (GI50) in assay [4] fell in the range of 0.1 to 1 µM.

Turning to `CCNC1CCN(c2ccc(C(=O)Nc3cc(Oc4cccc(C#N)c4)c4nc(C)cn4c3)c3nn(C)cc23)CC1` [Compound 326, N-[8-(3-cyano-phenoxy)-2-methylimidazo[1,2-a]pyridin-6-yl]-4-[4-(ethylamino)-1-piperidyl]-2-methyl-indazole-7-carboxamide], the half-maximal activity concentration (AC50) in assay [1] was in the range of 0.1 to 1 µM; in assay [5], 1 to 10 µM. Also, the IC50 in assay [1] is 0.1 to 1 µM; in assay [2], 1 to 10 µM; in assay [3] it was 0.1 to 1 µM; in assay [5] it was 1 to 10 µM. In assay [4], the GI50 lay within 1 to 10 µM.

Regarding `CCNC1CCN(c2ccc(C(=O)Nc3cc(Oc4cccc(C)c4)c4nc(C)cn4c3)c3nn(C)cc23)CC1` [Compound 327, 4-[4-(ethylamino)-1-piperidyl]-2-methyl-N-[2-methyl-8-(3-methylphenoxy)imidazo[1,2-a]pyridin-6-yl]indazole-7-carboxamide], the AC50 in assay [1] is under 0.1 µM; in assay [5], 1 to 10 µM. For the same compound, the 50% inhibitory concentration (IC50) in assay [1] lay in the range of 0.1 to 1 µM; in assay [2], 1 to 10 µM; in assay [3] it was 0.1 to 1 µM; in assay [5], 1 to 10 µM. In assay [4], the GI50 is 0.1 to 1 µM.

Consider `CCNC1CCN(c2ccc(C(=O)Nc3cc(Oc4ccc(C)cc4)c4nc(C)cn4c3)c3nn(C)cc23)CC1` [Compound 328, 4-(4-(ethylamino)-piperidin-1-yl)-2-methyl-N-(2-methyl-8-(p-tolyloxy)-imidazo[1,2-a]pyridin-6-yl)-2H-indazole-7-carboxamide 2,2,2-trifluoroacetate], for which the half-maximal activity concentration (AC50) in assay [1] was under 0.1 µM; in assay [5] it was 0.1 to 1 µM. Besides, the IC50 in assay [1] was under 0.1 µM; in assay [2] it was 0.1 to 1 µM; in assay [3], under 0.1 µM; in assay [5], 0.1 to 1 µM. In addition, in assay [4], the GI50 is 0.1 to 1 µM.

Usually AC50 stands for the concentration giving half of the maximal activity seen. As usually defined, the IC50 is the concentration that gives 50% inhibition. As a reminder, the GI50 is the concentration giving 50% growth inhibition.
